From US20180343857A1, “BIOSOLUBILIZER” (SOLIANCE, priority 2012, published 2018) come the findings set out here.

Structures can show the parent of a compound that is named as a salt.

The subject of the assay is Avena Fatua. The assay can be described thus: Biological effectiveness of glyphosate with extemporaneous adjuvant (biomass reduction curves). It is filed as in vivo. The note with it: Avena Fatua in pots; glyphosate 50 to 650 g equivalent acid per hectare; dry biomass 3 weeks after treatment; R = 1 for herbicide without adjuvant. The source says: The preparation of example 2.4 containing terpenic alcohols solubilised by sophorolipids is used as an extemporaneous adjuvant of glyphosate. Glyphosate is a non-selective herbicide, the definition and use of which are described in particular in “The biochemistry and uses of pesticides, 2nd edition” by Kenneth A. Hassall published by VCH (1990). An extemporaneous adjuvant is a preparation added to the phytosanitary preparation at the moment of application and is used to reinforce the action of the latter.
The glyphosate used is a solution of glyphosate in the form of isopropylamine salt titrated to 620 g/l equivalent glyphosate acid.
The effectiveness of the preparation according to the invention is assessed by forming curves of biological effectiveness, that is by determining the ability of the preparations to reduce the biomass of a target plant as a function of the concentration of herbicide. […]
where Y is the dry biomass of the plant (plant cut at the base and dried 24 h at 110° C. in a ventilated heat chamber), X is the concentration of herbicide expressed in grams of glyphosate acid per hectare. C, D, a and b being factors determined by analysing the curve according to the least squares method. […] Its value is determined by applying the above equation with the parameters D, C, a and b of the curve of the herbicide without adjuvant (R=1) according to the least squares method. […]

For `O=C(O)CNCP(=O)(O)O` [Glyphosate (iso-propylamine salt), Glyphosate], the “R (factor of effectiveness)” value turned out to be 1.
